Experimental data taken from ChEMBL document CHEMBL1156257, “Antibacterial effect of some benzopyrone derivatives” (2010).

Tests used:
Format in all cases: functional
Escherichia coli = experiment: Antibacterial activity against Escherichia coli XL-1 blue assessed as decrease in survival at 50 x 10^-6 M by turbidimetric method
Staphylococcus capitis [1] = experiment: Antibacterial activity against Staphylococcus capitis ATCC 2784 assessed as decrease in survival at 50 x 10^-6 M by turbidimetric method
Staphylococcus capitis [2] = experiment: Antibacterial activity against Staphylococcus capitis ATCC 2784 assessed as decrease in survival at 1.3 M by turbidimetric method
Staphylococcus capitis [3] = experiment: Antibacterial activity against Staphylococcus capitis ATCC 2784 assessed as decrease in survival at 0.5 M by turbidimetric method

Compound Cc1cc(=O)c2c(O)c(/C=N/CCC/N=C/c3c(O)cc4oc(C)cc(=O)c4c3O)c(O)cc2o1 has an Activity (Escherichia coli) of 35% and an Activity (Staphylococcus capitis [1]) of 70%.

In the case of COc1c(/C=N/CC/N=C/c2c(O)cc3oc(C)cc(=O)c3c2OC)c(O)cc2oc(C)cc(=O)c12, the Activity (Escherichia coli) is reported as 54% and the Activity (Staphylococcus capitis [1]) is reported as 40%.

COc1c(/C=N/CCC/N=C/c2c(O)cc3oc(C)cc(=O)c3c2OC)c(O)cc2oc(C)cc(=O)c12 showed an Activity (Escherichia coli) of 30% and an Activity (Staphylococcus capitis [1]) of 55%.

Cc1cc(=O)c2c(O)c(/C=N/CC/N=C/c3c(O)cc4oc(C)cc(=O)c4c3O)c(O)cc2o1 showed an Activity (Escherichia coli) of 60% and an Activity (Staphylococcus capitis [1]) of 50%.

For CN(C)C=O [DIMETHYLFORMAMIDE], the Activity (Staphylococcus capitis [2]) was 80% and the Activity (Staphylococcus capitis [3]) was 10%.
